According to patent US10508086B2 (CANCER RESEARCH TECHNOLOGY LIMITED, priority 2014, dated 2019):

Tests used:
[1] = molecular target: Human High specific Activity PARP1 (Homo sapiens (Human), UniProt P09874); experiment: PARP1 in vitro selectivity assay (histone PARylation, luminescence); assay type: biochemical; settings: read-out: PARP1 Biochem IC50
Procedure: PARP1 In vitro selectivity assays were conducted as a 10 ul reaction volume in a NUNC Maxisorp 384-well assay plate pre-coated in-house with Histones. 5 ul of Human High specific Activity PARP1 (Trevigen: 4668-100-01) was used at a final reaction concentration of 0.02 units/ml in 1×PARP Buffer (Trevigen: 4671-096-02) with 5 ul of 1×PARP cocktail, which is a mixture of 10×PARP Cocktail (Trevigen: 4671-096-03), 10× Activate DNA (Trevigen: 4671-096-06) and 20×PARP Buffer (as above). The reaction was incubated at room temperature for 60 minutes to allow histones on the coated plate to become PARylated. The wells were then washed with PBS/0.1% Triton X100. PARP1 activity was then detected by measuring the extent of PARylation. Firstly, 10 ul of Streptavidin-HRP (Trevigen: 4800-30-06), diluted 1 in 250 in 1×PARG Assay Buffer (Trevigen: 4680-096-02), was added to each well and incubated at room temperature for 60 minutes. Secondly, following another wash with PBS/0.1% Triton X100, Peroxy Glow Reagents A and B (Trevigen: 4675-096-01 and 4675-096-02) were mixed in equal quantities immediately before use and 100 ul was added to each well. Luminescence signal was then measured immediately.

Human Full Length ARH3 = Human Full Length ARH3 (Homo sapiens (Human), UniProt Q9NX46); experiment: ARH3 in vitro selectivity assay (TR-FRET); assay type: biochemical; settings: read-out: ARH3 Biochem IC50
Procedure: ARH3 In vitro selectivity assays were conducted in a total volume of 15 ul in a standard 384 well format. 5 ul of Human Full Length ARH3 (Enzo Life Sciences: ALX-201-292), used at a final reaction concentration of 17.5 nM, was added to 5 ul of Ribosylated PARP substrate (also produced internally by Astra Zeneca) at final reaction concentration of 4.5 nM in assay buffer (50 mM Tris pH7.4, 0.1 mg/ml BSA, 3 mM EDTA, 0.4 mM EGTA, 1 mM DTT, 0.01% Tween 20, 50 mM KCl). The reaction was incubated at room temperature for 30 minutes and then 5 ul detection reagent was added. Detection Reagent consists of 42 nM MAb Anti-6HIS XL665 (CisBio: 61HISXLB) and 2.25 nM Streptavidin Europium Cryptate (CisBio: 610SAKLB), both at 3× working stock concentrations (final concentrations of 14 nM and 0.75 nM respectively), in a detection buffer of 50 mM Tris pH7.4, BSA at 0.1 mg/ml and KF at 100 mM. Following incubation at room temperature for 60 minutes in the dark, TR-FRET signal was measured at Ex 340 and Em 665 and Em 620. A ratio was calculated as Em665/EM620×104 for each well and used to calculate percent inhibition for test compounds.

Human Full Length PARG = Human Full Length PARG (Homo sapiens (Human), UniProt Q86W56); experiment: PARG in vitro enzyme assay (TR-FRET); assay type: biochemical; settings: read-out: PARG_EC50_ENZYME
Summary of the method: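 Full-length human PARG ([…]) incubated with ribosylated PARP substrate (4.5 nM) for 10 min at room temperature in Tris pH 7.4 buffer with EDTA, EGTA, DTT, KCl. Detection by TR-FRET using anti-6HIS XL665 (14 nM final) and streptavidin europium cryptate (0.75 nM final) after 60 min; Em665/Em620 ratio converted to percent inhibition.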

PARG in HeLa cell line = PARG in HeLa cell line (Homo sapiens (Human), UniProt Q86W56); experiment: PARG cell assay (nuclear PAR chains after MMS, immunofluorescence); assay type: cell-based; settings: HeLa cells, MMS 50 μg/mL; read-out: PARG Cell IC50 Geomean
Summary of the method: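 HeLa cells pre-dosed 1 h with compound (10-point dose response), then MMS 50 μg/mL for a further hour at 37 °C. Fixed cells immunostained with anti-PAR antibody plus Alexa Fluor 488 secondary and Hoechst. High-content imaging quantified nuclear PAR fluorescence intensity; inhibition maintains PAR chains.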

Chain of Human High specific Activity PARP1 (P09874 whole entry): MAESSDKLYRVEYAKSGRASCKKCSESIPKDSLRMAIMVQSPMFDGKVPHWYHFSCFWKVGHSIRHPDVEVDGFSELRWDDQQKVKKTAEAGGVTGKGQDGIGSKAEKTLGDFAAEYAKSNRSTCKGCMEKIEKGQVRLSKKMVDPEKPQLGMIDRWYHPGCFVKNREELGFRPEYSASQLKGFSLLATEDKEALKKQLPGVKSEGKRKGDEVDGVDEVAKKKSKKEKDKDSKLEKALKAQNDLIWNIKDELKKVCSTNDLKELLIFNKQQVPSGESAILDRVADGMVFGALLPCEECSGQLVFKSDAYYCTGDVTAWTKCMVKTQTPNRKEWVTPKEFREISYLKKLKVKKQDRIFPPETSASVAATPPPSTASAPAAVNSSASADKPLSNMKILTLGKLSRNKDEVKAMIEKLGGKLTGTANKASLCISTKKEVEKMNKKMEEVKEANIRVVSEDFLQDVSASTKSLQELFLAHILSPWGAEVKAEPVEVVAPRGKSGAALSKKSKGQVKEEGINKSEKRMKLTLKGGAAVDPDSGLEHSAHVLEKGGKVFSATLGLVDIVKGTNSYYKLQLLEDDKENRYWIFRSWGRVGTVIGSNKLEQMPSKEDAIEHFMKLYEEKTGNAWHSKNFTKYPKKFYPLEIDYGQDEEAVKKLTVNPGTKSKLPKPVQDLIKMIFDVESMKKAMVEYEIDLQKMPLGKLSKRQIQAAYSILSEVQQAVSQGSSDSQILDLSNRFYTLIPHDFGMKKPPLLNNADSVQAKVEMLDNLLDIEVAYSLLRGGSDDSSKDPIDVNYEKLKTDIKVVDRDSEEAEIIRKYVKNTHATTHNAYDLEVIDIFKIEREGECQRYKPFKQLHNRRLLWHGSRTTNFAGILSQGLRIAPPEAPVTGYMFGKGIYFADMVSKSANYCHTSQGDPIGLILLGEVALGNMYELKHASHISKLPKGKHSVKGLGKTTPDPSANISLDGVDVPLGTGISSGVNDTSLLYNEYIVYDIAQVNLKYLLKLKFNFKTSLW
Chain of Human Full Length PARG (Q86W56 whole entry): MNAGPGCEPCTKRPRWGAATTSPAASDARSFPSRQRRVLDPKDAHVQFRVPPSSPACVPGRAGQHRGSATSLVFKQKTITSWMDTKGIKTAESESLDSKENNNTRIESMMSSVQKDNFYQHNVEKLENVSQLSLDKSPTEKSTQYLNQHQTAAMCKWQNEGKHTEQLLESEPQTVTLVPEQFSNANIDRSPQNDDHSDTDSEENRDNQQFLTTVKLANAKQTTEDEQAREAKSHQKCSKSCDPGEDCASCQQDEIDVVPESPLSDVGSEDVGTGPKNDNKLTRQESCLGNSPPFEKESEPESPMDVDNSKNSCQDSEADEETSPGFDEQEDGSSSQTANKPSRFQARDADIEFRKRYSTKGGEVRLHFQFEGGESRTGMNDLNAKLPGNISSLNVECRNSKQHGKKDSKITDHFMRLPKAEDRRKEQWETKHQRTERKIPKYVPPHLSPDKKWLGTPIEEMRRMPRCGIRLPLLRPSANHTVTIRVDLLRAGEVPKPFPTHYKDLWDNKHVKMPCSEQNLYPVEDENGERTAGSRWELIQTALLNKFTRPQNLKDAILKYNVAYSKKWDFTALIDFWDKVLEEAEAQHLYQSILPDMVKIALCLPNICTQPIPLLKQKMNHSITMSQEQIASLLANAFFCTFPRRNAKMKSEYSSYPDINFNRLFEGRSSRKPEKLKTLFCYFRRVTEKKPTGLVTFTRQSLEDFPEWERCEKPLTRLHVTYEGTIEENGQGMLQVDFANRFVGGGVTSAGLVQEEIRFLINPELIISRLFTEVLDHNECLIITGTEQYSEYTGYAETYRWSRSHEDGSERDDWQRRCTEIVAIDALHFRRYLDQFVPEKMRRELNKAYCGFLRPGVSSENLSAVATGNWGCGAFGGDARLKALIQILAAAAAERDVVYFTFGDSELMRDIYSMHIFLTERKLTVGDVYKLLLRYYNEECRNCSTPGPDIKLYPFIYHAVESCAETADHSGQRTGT
Chain of PARG in HeLa cell line (Q86W56 whole entry): as above
Chain of Human Full Length ARH3 (Q9NX46 whole entry): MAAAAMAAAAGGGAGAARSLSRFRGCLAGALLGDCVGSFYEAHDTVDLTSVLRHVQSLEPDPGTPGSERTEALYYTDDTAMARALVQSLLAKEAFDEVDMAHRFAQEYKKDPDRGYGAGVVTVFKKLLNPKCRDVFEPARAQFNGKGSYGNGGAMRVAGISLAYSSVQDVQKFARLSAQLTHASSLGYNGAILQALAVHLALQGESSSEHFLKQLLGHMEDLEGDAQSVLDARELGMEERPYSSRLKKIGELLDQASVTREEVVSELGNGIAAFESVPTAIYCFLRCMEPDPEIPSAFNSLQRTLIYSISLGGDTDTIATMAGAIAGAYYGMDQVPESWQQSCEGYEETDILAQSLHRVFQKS

Compound | IC50 [1] [nM] | IC50 (Human Full Length ARH3) [nM] | EC50 (Human Full Length PARG) [nM] | IC50 (PARG in HeLa cell line) [nM]
CC1(NS(=O)(=O)c2ccc3c(c2)N(C(=O)CN2CCOC2=O)CC3)CC1 [Example 14, N-(1-Methylcyclopropyl)-1-[2-(2-oxooxazolidin-3-yl)acetyl]indoline-6-sulfonamide] | > 150000 | > 150000 | 4280 | –
Cc1nnc(-n2c(=O)n(Cc3ccc(F)cc3)c3ccc(S(=O)(=O)NC4(C)CC4)cc32)s1 [Example 73] | > 150000 | > 100000 | 636 | 107
Cc1nnc(-n2c(=O)n(CC3CC3)c3ccc(S(=O)(=O)NC4(C)CC4)cc32)s1 [Example 82] | > 150000 | > 100000 | 155 | 193
Cc1ncc(Cn2c(=O)n(-c3nnc(C)s3)c3cc(S(=O)(=O)NC4(C)CC4)ccc32)s1 [Example 83] | > 150000 | > 100000 | 151 | 127
Cc1nnc(-n2cnc3ccc(S(=O)(=O)NC4(C)CC4)cc32)s1 [Example 119] | > 150000 | > 150000 | 1030 | –
Cc1nnc(-n2nc(Cc3ccc(F)cc3)c3ccc(S(=O)(=O)NC4(C)CC4)cc32)s1 [Example 146, 3-[(4-Fluorophenyl)methyl]-N-(1-methylcyclopropyl)-1-(5-methyl-1,3,4-thiadiazol-2-yl)indazole-6-sulfonamide] | > 150000 | > 16700 | 1190 | –
CC1(NS(=O)(=O)c2cc3c(cc2F)n(CCF)c(=O)n3-c2nnc(C(F)F)o2)CC1 [Example 211, 3-[5-(Difluoromethyl)-1,3,4-oxadiazol-2-yl]-6-fluoro-1-(2-fluoroethyl)-N-(1-methylcyclopropyl)-2-oxo-benzimidazole-5-sulfonamide] | – | > 150000 | 401 | 135
C#CCn1c(=O)n(-c2nnc(C(F)F)s2)c2cc(S(=O)(=O)NC3(CF)CC3)c(F)cc21 [Example 213, 3-[5-(Difluoromethyl)-1,3,4-thiadiazol-2-yl]-6-fluoro-N-[1-(fluoromethyl)cyclopropyl]-2-oxo-1-prop-2-ynyl-benzimidazole-5-sulfonamide] | – | > 150000 | 29 | 16
O=c1n(CCF)c2cc(F)c(S(=O)(=O)NC3(CF)CC3)cc2n1-c1nnc(C(F)F)s1 [Example 216, 3-[5-(Difluoromethyl)-1,3,4-thiadiazol-2-yl]-6-fluoro-1-(2-fluoroethyl)-N-[1-(fluoromethyl)cyclopropyl]-2-oxo-benzimidazole-5-sulfonamide] | – | > 150000 | 51 | 33
CCOC(=O)c1oc2ccc(S(=O)(=O)NC3(C)CC3)cc2c1C [Example 218, Ethyl 3-methyl-5-[(1-methylcyclopropyl)sulfamoyl]benzofuran-2-carboxylate] | – | – | 15800 | 2810

Other lines, results leading:

IC50 [1] [nM] | IC50 (Human Full Length ARH3) [nM] | EC50 (Human Full Length PARG) [nM] | IC50 (PARG in HeLa cell line) [nM] | Compound
> 150000 | > 100000 | 652 | – | Cn1c(=O)n(-c2nnc(C(F)F)s2)c2cc(S(=O)(=O)NC3(C)CC3)ccc21 [Example 79]
> 150000 | 76700 | 68 | 109 | Cc1nnc(-n2c(=O)n(Cc3sc(C)nc3C)c3ccc(S(=O)(=O)NC4(C)CC4)cc32)s1 [Example 87]
> 150000 | > 100000 | 53 | 38 | Cc1nc(C)c(Cn2c(=O)n(-c3nnc(C(F)F)s3)c3cc(S(=O)(=O)NC4(C)CC4)ccc32)s1 [Example 88]
> 150000 | > 100000 | 40 | 63 | Cc1nc(C)c(Cn2c(=O)n(-c3ncns3)c3cc(S(=O)(=O)NC4(C)CC4)ccc32)s1 [Example 90]
> 150000 | > 150000 | 671 | – | Cc1cc(Cc2nc3ccc(S(=O)(=O)NC4(C)CC4)cc3n2-c2nnc(C)s2)on1 [Example 118]
> 150000 | > 16700 | 371 | 251 | Cc1nnc(-n2cc(Cc3sc(C)nc3C)c3ccc(S(=O)(=O)NC4(C)CC4)cc32)s1 [Example 129, 3-[(2,4-Dimethylthiazol-5-yl)methyl]-N-(1-methylcyclopropyl)-1-(5-methyl-1,3,4-thiadiazol-2-yl)indole-6-sulfonamide]
> 150000 | > 150000 | 134 | 46.6 | CC1(NS(=O)(=O)c2ccc3c(C(=O)C4CC4)cn(-c4nnc(C(F)F)s4)c3c2)CC1 [Example 145, 3-(Cyclopropanecarbonyl)-1-[5-(difluoromethyl)-1,3,4-thiadiazol-2-yl]-N-(1-methylcyclopropyl)indole-6-sulfonamide]
> 150000 | > 50000 | 91 | 41 | Cn1c(=O)n(-c2nnc(C(F)F)s2)c2cc(S(=O)(=O)NC3(CF)CC3)c(F)cc21 [Example 174, 3-[5-(difluoromethyl)-1,3,4-thiadiazol-2-yl]-6-fluoro-N-[1-(fluoromethyl)cyclopropyl]-1-methyl-2-oxo-benzimidazole-5-sulfonamide]
– | > 150000 | 112 | 126 | CCn1c(=O)n(-c2nnc(C(F)F)o2)c2cc(S(=O)(=O)NC3(CF)CC3)c(F)cc21 [Example 200, 3-[5-(Difluoromethyl)-1,3,4-oxadiazol-2-yl]-1-ethyl-6-fluoro-N-[1-(fluoromethyl)cyclopropyl]-2-oxo-benzimidazole-5-sulfonamide]
> 150000 | > 150000 | 54 | 29 | CCn1c(=O)n(-c2nnc(C(F)F)s2)c2cc(S(=O)(=O)NC3(CF)CC3)c(F)cc21 [Example 208, 3-[5-(Difluoromethyl)-1,3,4-thiadiazol-2-yl]-1-ethyl-6-fluoro-N-[1-(fluoromethyl)cyclopropyl]-2-oxo-benzimidazole-5-sulfonamide]
– | > 150000 | 129 | 110 | O=c1n(CCF)c2cc(F)c(S(=O)(=O)NC3(CF)CC3)cc2n1-c1nnc(C(F)F)o1 [Example 212, 3-[5-(Difluoromethyl)-1,3,4-oxadiazol-2-yl]-6-fluoro-1-(2-fluoroethyl)-N-[1-(fluoromethyl)cyclopropyl]-2-oxo-benzimidazole-5-sulfonamide]
– | – | 156 | 36 | CC1(NS(=O)(=O)c2cc3c(cc2F)n(CCF)c(=O)n3-c2nnc(C(F)F)s2)CC1 [Example 217, 3-[5-(Difluoromethyl)-1,3,4-thiadiazol-2-yl]-6-fluoro-1-(2-fluoroethyl)-N-(1-methylcyclopropyl)-2-oxo-benzimidazole-5-sulfonamide]
